Measurements: PubChem BioAssay (NCI)
In brackets after ≈: the same amount, converted by molar mass.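 Growth conditions: 96-well plates. Treatment: test compound, 48 hours, 5 concentrations. Analysis: linear interpolation between bracketing concentrations; unreached endpoints set to highest concentration. Abbreviation: GI50, concentration required for 50% inhibition of growth. The concentration for full growth arrest is given as TGI.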

Assays:
Assay in all cases: NCI-60 cell line screen, 48 h
SW-620 colon = system: SW-620 colon
CCRF-CEM leukemia = system: CCRF-CEM leukemia
SF-539 CNS = system: SF-539 CNS
OVCAR-8 ovarian = system: OVCAR-8 ovarian
CAKI-1 renal = system: CAKI-1 renal
RXF 393 renal = system: RXF 393 renal
DU-145 prostate = system: DU-145 prostate
EKVX NSCLC = system: EKVX NSCLC
HCT-15 colon = system: HCT-15 colon
KM12 colon = system: KM12 colon
OVCAR-4 ovarian = system: OVCAR-4 ovarian
OVCAR-5 ovarian = system: OVCAR-5 ovarian
MDA-MB-231 breast = system: MDA-MB-231 breast
OVCAR-3 ovarian = system: OVCAR-3 ovarian
SNB-19 CNS = system: SNB-19 CNS
A549 NSCLC = system: A549 NSCLC
SK-MEL-5 melanoma = system: SK-MEL-5 melanoma
MCF7 breast = system: MCF7 breast
NCI-H460 lung = system: NCI-H460 lung
MALME-3M melanoma = system: MALME-3M melanoma
ACHN renal = system: ACHN renal
HL-60(TB) leukemia = system: HL-60(TB) leukemia
786-0 renal = system: 786-0 renal
UACC-62 melanoma = system: UACC-62 melanoma
SF-268 CNS = system: SF-268 CNS
HT29 colon = system: HT29 colon
M14 melanoma = system: M14 melanoma
RPMI-8226 leukemia = system: RPMI-8226 leukemia
HOP-62 NSCLC = system: HOP-62 NSCLC
HS 578T breast = system: HS 578T breast
SK-MEL-28 melanoma = system: SK-MEL-28 melanoma
K-562 leukemia = system: K-562 leukemia
SN12C renal = system: SN12C renal
SNB-75 CNS = system: SNB-75 CNS
MOLT-4 leukemia = system: MOLT-4 leukemia
MDA-MB-435 = system: MDA-MB-435
COLO 205 colon = system: COLO 205 colon
HCC-2998 colon = system: HCC-2998 colon
TK-10 renal = system: TK-10 renal
IGROV1 ovarian = system: IGROV1 ovarian
T-47D breast = system: T-47D breast
UACC-257 melanoma = system: UACC-257 melanoma
LOX IMVI melanoma = system: LOX IMVI melanoma
SR leukemia = system: SR leukemia
NCI-H226 lung = system: NCI-H226 lung
NCI-H522 lung = system: NCI-H522 lung
UO-31 renal = system: UO-31 renal
HCT-116 colon = system: HCT-116 colon
SK-MEL-2 melanoma = system: SK-MEL-2 melanoma
NCI-H23 lung = system: NCI-H23 lung
A498 renal = system: A498 renal
U251 CNS = system: U251 CNS
NCI/ADR-RES ovarian = system: NCI/ADR-RES ovarian
SF-295 CNS = system: SF-295 CNS

**Q.** Which TGI (SW-620 colon) does the source give for O=[n+]1c2ccccc2n([O-])c2cc(Br)ccc21 here?
**A.** The TGI was 75.7 µM.

**Q.** And the TGI (CCRF-CEM leukemia)?
**A.** Its TGI is > 100 µM.

**Q.** What about the TGI (SF-539 CNS) of the same compound?
**A.** Its TGI is 37.5 µM.

**Q.** And the TGI (OVCAR-8 ovarian)?
**A.** Its TGI is 47.9 µM.

**Q.** What about the TGI (CAKI-1 renal) of the same compound?
**A.** Its TGI is 17.2 µM.

**Q.** What about the TGI (RXF 393 renal) of the same compound?
**A.** The TGI was 41.1 µM.

**Q.** What about the TGI (DU-145 prostate) of the same compound?
**A.** The TGI was 98.9 µM.

**Q.** What about the TGI (EKVX NSCLC) of the same compound?
**A.** The TGI was 49.9 µM.

**Q.** And the TGI (HCT-15 colon)?
**A.** The TGI was 32 µM.

**Q.** And the TGI (KM12 colon)?
**A.** Its TGI is 30.9 µM.

**Q.** What about the TGI (OVCAR-4 ovarian) of the same compound?
**A.** Its TGI is 45.2 µM.

**Q.** What about the TGI (OVCAR-5 ovarian) of the same compound?
**A.** Its TGI is > 100 µM.

**Q.** And the TGI (MDA-MB-231 breast)?
**A.** The TGI was > 100 µM.

**Q.** And the TGI (OVCAR-3 ovarian)?
**A.** The TGI was 9.04 µM.

**Q.** What about the TGI (SNB-19 CNS) of the same compound?
**A.** Its TGI is > 100 µM.

**Q.** And the TGI (A549 NSCLC)?
**A.** The TGI was 39.4 µM.

**Q.** And the TGI (SK-MEL-5 melanoma)?
**A.** Its TGI is 39.5 µM.

**Q.** What about the TGI (MCF7 breast) of the same compound?
**A.** The TGI was 53 µM.

**Q.** And the TGI (NCI-H460 lung)?
**A.** The TGI was > 100 µM.

**Q.** What about the TGI (MALME-3M melanoma) of the same compound?
**A.** Its TGI is 39.7 µM.

**Q.** And the TGI (ACHN renal)?
**A.** Its TGI is 17.4 µM.

**Q.** And the TGI (HL-60(TB) leukemia)?
**A.** Its TGI is 7.56 µM.

**Q.** What about the TGI (786-0 renal) of the same compound?
**A.** Its TGI is > 100 µM.

**Q.** What about the TGI (UACC-62 melanoma) of the same compound?
**A.** The TGI was 55.6 µM.

**Q.** And the TGI (SF-268 CNS)?
**A.** The TGI was 55.3 µM.

**Q.** And the TGI (HT29 colon)?
**A.** The TGI was 39.1 µM.

**Q.** And the TGI (M14 melanoma)?
**A.** The TGI was > 100 µM.

**Q.** And the TGI (RPMI-8226 leukemia)?
**A.** Its TGI is 61.4 µM.

**Q.** What about the TGI (HOP-62 NSCLC) of the same compound?
**A.** The TGI was > 100 µM.

**Q.** And the TGI (HS 578T breast)?
**A.** The TGI was > 100 µM.

**Q.** And the TGI (SK-MEL-28 melanoma)?
**A.** Its TGI is > 100 µM.

**Q.** What about the TGI (K-562 leukemia) of the same compound?
**A.** Its TGI is 33.4 µM.

**Q.** And the TGI (SN12C renal)?
**A.** Its TGI is 42.3 µM.

**Q.** And the TGI (SNB-75 CNS)?
**A.** Its TGI is 77.7 µM.

**Q.** What about the TGI (MOLT-4 leukemia) of the same compound?
**A.** Its TGI is 2.19 µM.

**Q.** And the TGI (MDA-MB-435)?
**A.** Its TGI is 36.5 µM.

**Q.** And the TGI (COLO 205 colon)?
**A.** The TGI was 57.2 µM.

**Q.** And the TGI (HCC-2998 colon)?
**A.** The TGI was 39.9 µM.

**Q.** What about the TGI (TK-10 renal) of the same compound?
**A.** Its TGI is 72.9 µM.

**Q.** What about the TGI (IGROV1 ovarian) of the same compound?
**A.** The TGI was 18.8 µM.

**Q.** And the TGI (T-47D breast)?
**A.** Its TGI is 45.9 µM.

**Q.** What about the TGI (UACC-257 melanoma) of the same compound?
**A.** The TGI was 34.9 µM.

**Q.** What about the TGI (LOX IMVI melanoma) of the same compound?
**A.** Its TGI is 13.6 µM.

**Q.** And the TGI (SR leukemia)?
**A.** The TGI was 5.21 µM.

**Q.** And the TGI (NCI-H226 lung)?
**A.** The TGI was 48.5 µM.

**Q.** And the TGI (NCI-H522 lung)?
**A.** Its TGI is 30.2 µM.

**Q.** What about the TGI (UO-31 renal) of the same compound?
**A.** The TGI was 28.1 µM.

**Q.** And the TGI (HCT-116 colon)?
**A.** The TGI was > 100 µM.

**Q.** And the TGI (SK-MEL-2 melanoma)?
**A.** The TGI was 56.8 µM.

**Q.** And the TGI (NCI-H23 lung)?
**A.** Its TGI is 49.6 µM.

**Q.** What about the TGI (A498 renal) of the same compound?
**A.** Its TGI is 40.2 µM.

**Q.** And the TGI (U251 CNS)?
**A.** Its TGI is 78.8 µM.

**Q.** And the TGI (NCI/ADR-RES ovarian)?
**A.** Its TGI is 68.9 µM.

**Q.** And the TGI (SF-295 CNS)?
**A.** The TGI was 46.4 µM.

**Q.** Which GI50 (OVCAR-4 ovarian) does the source give for COc1cc(CC2C(=O)NC(=O)NC2=O)ccc1OCc1ccccc1 here?
**A.** The GI50 was 59.8 µg/mL (≈ 169 µM).

**Q.** What about the GI50 (HS 578T breast) of the same compound?
**A.** The GI50 was 91.3 µg/mL (≈ 258 µM).

**Q.** What about the GI50 (SNB-75 CNS) of the same compound?
**A.** Its GI50 is 38 µg/mL (≈ 107 µM).
